Laboratory results taken from patent US7928187B2, “Neuropeptide alarin” (Austria Wirtschaftsservice Gesellschaft mit beschrankter …, priority 2005, dated 2011).
Ends that are not written are not given here.

Legend:
[1] = tested on: CD-1 mouse skin; test: Inflammatory oedema formation (plasma extravasation) in mouse dorsal skin; assay type: in vivo
Method: Experiments involving mice were carried out under the Animals (Scientific Procedures) Act, 1986. Normal female CD-1 mice (22-27 g, 8-12 weeks) were obtained from Charles River, U.K. All mice were maintained on normal diet, with free access to food and water, in a climatically controlled environment. Animals were anaesthetized with urethane (25% w v-1; 2.5 g kg-1 i.p.) and the dorsal skin was shaved. Injection sites were chosen according to a randomized site pattern on the dorsal skin of the anaesthetized mouse. Agents were from Sigma, Poole, U.K., unless specified. Alarin (1-25)-amide (murine) alarin (3-32)-amide (murine) were custom synthesized by NeoMPS Inc. (Strasbourg, France). All peptides were dissolved in distilled water. The stock solutions (10 nM) were stored at −20° C. and further diluted in Tyrode's solution (137 mM NaCl, 2.7 mM KCl, 0.5 mM MgCl2, 0.4 mM NaH2PO4, 11.9 mM NaHCO3, 5.6 mM glucose) just prior use.
Plasma extravasation was used as an index of inflammatory oedema formation and measured as previously described (Cao et al, 1999). Briefly, test agents were diluted in Tyrode's solution and stored on ice. […] The amount of plasma extravasated (μl g-1 tissue) was calculated by comparing the amount of radioactivity in each skin site with that in 100 μl plasma from the same animal.

[2] = tested on: galanin receptors; test: Microphysiometry on galanin receptor expressing cells, receptor activation; assay type: cell-based, human; conditions: binding assays and microphysiometry on galanin receptor expressing cells
Method: After reaching confluency the cells are harvested and seeded into 3.0 μm pore transwells (Corning Costar) held in 12 well plates one day before the experiment. The cells are allowed to settle down in the culture medium and cultured overnight in serum-free growth-medium. The ECAR of cells is determined by using a Cytosensor Microphysiometer (Molecular Devices). A capsule spacer and a capsule insert are assembled in the transwells, transferred into a sensor chamber and kept in DMEM without sodium bicarbonate throughout the entire experiment at 37° C. The running medium is pumped through each sensor chamber at 50 μl min^−1. A typical pumping cycle of 120 s consists of a flow period of 90 s, followed by a flow-off period of 30 s. During flow-off periods, protons released from the cells accumulate in the sensor chamber, and the rate of proton release is quantified by fitting the sensor data to a straight line with the least-squares fit to the slope of the pH profile. Agonists or other agents are diluted into running medium and perfused through a second fluid path. […]
SH-SY5Y/GalR1 and SH-SY5Y/GalR2 cells (Berger 2004) were seeded into 3.0-μM pore size Transwells (Corning Costar, Cambridge, Mass., USA). The extracellular acidification rate was determined using a cytosensor microphysiometer (Molecular Devices, Ismanning, Germany) as previously reported (Lang et al., 2001).

[3] = biological target: T1, GALR2 receptor (Homo sapiens, UniProt O43603); test: Microphysiometry, extracellular acidification rate, SY5Y cells expressing GALR2; assay type: cell-based; conditions: human neuroblastoma cells SY5Y expressing GALR2; alarin 100 nM
T1 construct: expressed in transfected cells; host or cells: SH-SY5Y human neuroblastoma cells
T1 sequence (O43603 1-387): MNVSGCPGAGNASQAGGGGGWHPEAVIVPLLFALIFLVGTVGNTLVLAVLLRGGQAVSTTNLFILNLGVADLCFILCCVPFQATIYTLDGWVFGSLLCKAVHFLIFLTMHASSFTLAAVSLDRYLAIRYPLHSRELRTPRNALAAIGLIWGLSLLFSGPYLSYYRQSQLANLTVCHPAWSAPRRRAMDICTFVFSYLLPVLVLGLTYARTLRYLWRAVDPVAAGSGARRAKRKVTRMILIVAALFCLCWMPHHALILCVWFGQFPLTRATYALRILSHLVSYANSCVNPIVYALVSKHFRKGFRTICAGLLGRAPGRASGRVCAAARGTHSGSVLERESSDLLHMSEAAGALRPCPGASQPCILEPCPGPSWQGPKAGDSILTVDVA

[4] = tested on: galanin receptors; test: Receptor binding assay, displacement of radiolabeled GAL from membrane preparations; conditions: binding assays and functional microphysiometry, 50 pM [125I]GAL
Method: Membrane preparations and radioligand binding assays were performed according to Berger et al. (Berger et al., 2002). Displacement of radiolabeled GAL binding to membrane preparations (15 μg) was carried out in duplicates in a total volume of 120 μl of binding buffer containing 50 pM [125I]GAL (2,000 Ci/mmol; Amersham Pharmacia Biotech (Little Chalfont, UK) and different concentrations of synthetic murine alarin (1-25-amide) and alarin (3-25-amide).

[5] = tested on: CNS; test: Functional assays in the CNS with murine alarin peptides; assay type: in vivo, mice (C57Bl/6); conditions: amidated synthetic murine peptides 1-25 and 3-25
Method: (§1) Intact adult male mice (C57Bl/6) were treated by a single injection into the lateral ventricles with either artificial cerebrospinal fluid (aCSF), alarin 1-25 (A1), alarin 3-25 (A3). Each treatment was given in an equimolar dose of 5 nmol. Body weight and food weight were measured at 1 hr, 2 hr, and 24 hr post injection. (Shown here as percent change in body weight from baseline).
as §1, with “grams of food consumed).” for “percent change in body weight from baseline).”
(§2) Intact adult male mice (C57Bl/6) were treated by a single injection into the lateral ventricles with either artificial cerebrospinal fluid (aCSF), alarin 1-25 (A1), alarin 3-25 (A3). Each treatment was given in an equimolar dose of 5 nmol. Blood was collected 30 min after injection and serum was assayed for LH content. (LH levels shown here in ng/ml).

[6] = Food intake after injection into the lateral ventricles; assay type: in vivo, mice (C57Bl/6); conditions: 5 nmol, single injection into lateral ventricles, one hour after injection, adult male mice
Method: as §1, with “grams of food consumed).” for “percent change in body weight from baseline).”

[7] = Luteinising hormone (LH) level after injection into the lateral ventricles; assay type: in vivo, mice (C57Bl/6); conditions: 5 nmol, single injection into lateral ventricles, blood collected 30 min after injection, adult male mice
Method: as §2

[8] = Body weight after injection into the lateral ventricles; assay type: in vivo, mice (C57Bl/6); conditions: 5 nmol, single injection into lateral ventricles, one hour after injection, adult male mice
Method: as §1

Substance: APAHRSSTFPKWVTKTERGRQPLRS (listed as Homo sapiens) [alarin, novel neuropeptide, splice variant of GALP mRNA]
- inhibition of inflammatory oedema ([1]; co-injection with substance P (300 pmol) and CGRP (10 pmol), intradermal, murine dorsal skin): inhibition of inflammatory oedema
- activation of galanin receptors [2]: not able to activate these receptors
- change in extracellular acidification [3]: No change
- binding to galanin receptors [4]: can be excluded

Substance: Alarin 1-25: amidated synthetic murine alarin peptide 1-25 (APAHRSSPFPPRPTRAGRETQLLRS-NH2)
- potency in inhibition of oedema formation in the skin, alarin 1-25 compared with alarin 3-25 ([1]; amidated synthetic murine peptides): more potent
- activity in the CNS [5]: only alarin 3-25 was active in the CNS

Substance: Alarin 3-25: amidated synthetic murine alarin peptide 3-25 (AHRSSPFPPRPTRAGRETQLLRS-NH2)
- food intake [6]: significant decrease
- plasma LH levels [7]: significant increase
- activity in the CNS [5]: active
- body weight [8]: significant reduction
